Source: patent publication US9546201B2, “MUC-1 cytoplasmic domain peptides as inhibitors of cancer” (DANA-FARBER CANCER INSTITUTE, INC., priority 2008, dated 2017)
Where two headings read alike, the source gives them in different places. Where a SMILES comes first, the peptide text is derived from it. Where no end group is shown, it is not given here. [ ]: non-standard residue; d: D form.

Assays:
MUC1-C in ZR-75-1 cells = molecular target: T1, MUC1-C in ZR-75-1 cells (Homo sapiens, UniProt P15941); test: Immunoblot of whole cell and nuclear lysates, ZR-75-1; format: cell-based; conditions: 5 μM peptide for 3 d; for decreases in nuclear MUC1-C levels: nuclear lysates; for cellular MUC1-C levels: whole cell lysates
T1 construct: translated as a single polypeptide and cleaved into N- and C-terminal subunits in the endoplasmic reticulum; endogenous in cells; host or cells: ZR-75-1 and MCF-7 human breast cancer cells
T1 sequence (P15941 1098-1255 limits assumed): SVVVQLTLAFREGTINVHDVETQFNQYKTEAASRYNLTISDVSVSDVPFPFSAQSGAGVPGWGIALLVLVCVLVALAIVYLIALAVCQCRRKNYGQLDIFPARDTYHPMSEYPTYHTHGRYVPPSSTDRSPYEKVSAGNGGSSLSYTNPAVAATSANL
Description: FIGS. 2A-C. MUC1/CQC peptide blocks nuclear localization of MUC1-C. (FIG. 2A) ZR-75-1 cells were incubated with 5 μM FITC-labeled MUC1/CQC peptide for the indicated times and then analyzed by flow cytometry. The mean fluorescence index (MFI) is included in each of the panels. (FIGS. 2B-C) ZR-75-1 (FIG. 2B) and MCF-7 (FIG. 2C) cells were incubated in the presence of 5 μM MUC1/CQC or MUC1/AQA peptide for 3 d. Whole cell lysates (WCL) (left panels) and nuclear lysates (right panels) were immunoblotted with the indicated antibodies.
Whole cell and nuclear lysates were prepared as described (Leng et al., 2007). Soluble proteins were subjected to immunoprecipitation with anti-Flag (Sigma, St. Louis, Mo.). Immunoprecitates and soluble proteins were analyzed by immunoblotting with anti-His (Cell Signaling Technology, Danvers, Mass.), anti-GFP (Millipore, Danvers, Mass.), anti-Flag, anti-MUC1-C (Abl; NeoMarkers, Fremont, Calif.), anti-lamin B (EMD, La Jolla, Calif.) or anti-β-actin (Sigma). Reactivity was detected with horseradish peroxidase-conjugated second antibodies and chemiluminescence.
Human ZR-75-1 and MCF-7 breast cancer cells overexpress endogenous MUC1, and thus represent potential models for evaluating effects of the MUC1/CQC peptide (Ramasamy et al., 2007). To assess uptake, the ZR-75-1 cells were incubated with 5 μM FITC-MUC1/CQC peptide (FIG. 2A). […] Oligomerization of MUC1-C is necessary for its nuclear import (Leng et al., 2007). Treatment of ZR-75-1 cells with the MUC1/CQC or the MUC1/AQA peptide had no effect on cellular MUC1-C levels (FIG. 2B). […] These findings indicate that the MUC1/CQC peptide blocks MUC1-C oligomerization and thereby targeting of MUC1-C to the nucleus.

[1] = tested on: ZR-75-1 breast tumor xenografts
Description: FIGS. 5A-C. […] (FIG. 5A) Four to six week-old female Balb-c nu/nu mice were implanted with 17-β-estradiol plugs. After 24 h, ZR-75-1 breast cancer cells (imbedded in matrigel) were injected subcutaneously in the flank. When tumors were ˜150 mm3, the mice were paired matched into groups and injected intraperitoneally with PBS (vehicle control; closed squares), 50 mg/kg MUC1/AQA peptide (control peptide; open squares) or 10 mg/kg MUC1/CQC peptide (closed triangles) daily for 21 d. Another group was treated with 50 mg/kg MUC1/CQC peptide daily (⇑) for 6 d (open triangles). Mice were weighed twice weekly and tumor measurements were performed every 4 d. (FIGS. 5B and 5C). On day 24 (asterisk), tumors harvested from the control group and the group treated with 50 mg/kg/d×6d were stained with H&E (FIG. 5B) and with an antibody against MUC1 (FIG. 5C).
(FIG. 6A) Mice were injected with ZR-75-1 cells as described in the legend to FIG. 5A. When tumors were ˜275 mm^3, the mice were paired matched into groups and injected intraperitoneally with PBS (vehicle control; open squares) or 30 mg/kg MUC1/CQC peptide (closed squares) daily for 21 days (solid horizontal bar). […] The treated mice were monitored until day 52 when tumors were harvested for H&E staining (FIG. 6B).
Balb-c nu/nu female mice (Charles River Laboratories, Wilmington, Mass.), 4-6 weeks old weighing 18-22 grams, were implanted subcutaneously with 17-β-estradiol plugs (0.72 mg; Innovative Research, Sarasota, Fla.) using a trocar gun. After 24 h, 1×10^7 ZR-75-1 cells imbedded in Matri-Gel (BD Biosciences) were injected subcutaneously in the flank. When tumors were detectable at ˜150 mm^3 (Cohort 1) or 275 mm^3 (Cohort 2), the mice were pair matched into treatment and control groups. Each group contained 5 mice, each of which was ear tagged and followed throughout the study. Initial dosing was administered at the time of pair matching (day 1). Phosphate-buffered saline (vehicle), MUC1/CQC peptide and MUC1/AQA peptide were administered daily by intraperitoneal injection. Mice were weighed twice weekly, and tumor measurements were performed using calipers every 4 d. Tumor volume (V) was calculated using the formula V=W2×L/2, where W and L are the smaller and larger diameters, respectively. At sacrifice, the mice were perfused with saline and then phosphate-buffered formalin by cardiac administration. Tumors were excised, immersion fixed for 4 h, dehydrated through a graded series of ethanols, and processed for routine paraffin embedding. Tumors were evaluated by H&E staining and for immunoperoxidase staining with anti-MUC1 as described (Kufe, 1984).
To determine if administration of the MUC1/CQC peptide is associated with effects on body weight, five female nude (nu/nu) mice were injected intraperitoneally (IP) once each day at a dose of 50 mg/kg. […] To assess anti-tumor activity, ZR-75-1 cells (1×10^7) were implanted subcutaneously into the flanks of nude mice. After 12 d, mice bearing tumors of approximately 150 mm^3 were treated with the MUC1/CQC peptide at doses of 10 and 50 mg/kg/d. As controls, mice were treated with vehicle alone or with the MUC1/AQA peptide. […] To assess in part the basis for the activity, tumors harvested from control and treated mice were examined by histopathology. […] Sections of the tumors were also stained with an antibody against MUC1.
Studies were also performed on larger tumors (˜275 mm^3) (FIG. 6A).

[2] = 30 mg/kg/d×21 d, tumors harvested on day 52

| Compound | decreases in nuclear MUC1-C levels (MUC1-C in ZR-75-1 cells) | cellular MUC1-C levels (MUC1-C in ZR-75-1 cells) | tumor growth ([1]; 10 mg/kg/d×21 d IP, tumors ~150 mm3, compared with MUC1/AQA 50 mg/kg/d) | MUC1 expression in tumors [1, 2] | tumor histopathology (H&E) [1, 2] | tumor growth ([1]; 30 mg/kg/d×21 d IP, larger tumors ~275 mm3) | tumor growth during treatment ([1]; 50 mg/kg/d IP, initial 7 d, tumors ~150 mm3) | tumor growth ([1]; 10 and 30 mg/kg/d for 21 d) | tumor histopathology (H&E) ([1]; 10 and 50 mg/kg, compared with vehicle or MUC1/AQA) | MUC1 expression in tumors (anti-MUC1 staining) ([1]; tumors ~150 mm3 cohort, compared with control and MUC1/AQA) | anti-tumor activity ([1]; 50 mg/kg/d for 21 d) |
| --- | --- | --- | --- | --- | --- | --- | --- | --- | --- | --- | --- |
| CC[C@H](C)[C@H](NC(=O)[C@H](CC(=O)O)NC(=O)[C@H](CC(C)C)NC(=O)[C@H](CCC(N)=O)NC(=O)CNC(=O)[C@H](Cc1ccc(O)cc1)NC(=O)[C@H](CC(N)=O)NC(=O)[C@H](CCCCN)NC(=O)[C@H](CCCNC(=N)N)NC(=O)[C@H](CCCNC(=N)N)NC(=O)[C@H](CS)NC(=O)[C@H](CCC(N)=O)NC(=O)[C@H](CS)NC(=O)[C@@H](CCCNC(=N)N)NC(=O)[C@@H](CCCNC(=N)N)NC(=O)[C@@H](CCCNC(=N)N)NC(=O)[C@@H](CCCNC(=N)N)NC(=O)[C@@H](CCCNC(=N)N)NC(=O)[C@@H](CCCNC(=N)N)NC(=O)[C@@H](CCCNC(=N)N)NC(=O)[C@@H](CCCNC(=N)N)NC(=O)[C@H](N)CCCNC(=N)N)C(=O)N[C@@H](Cc1ccccc1)C(=O)N1CCC[C@H]1C(=O)O [MUC1/CQC] (H-[dR][dR][dR][dR][dR][dR][dR][dR][dR]CQCRRKNYGQLDIFP-OH; N-terminus and C-terminus assumed) | decreases in nuclear MUC1-C levels | no effect | slowed growth | down-regulation of MUC1 expression | extensive areas of necrosis | arrest of tumor growth | blocked growth | effective in abrogating tumor growth | markedly necrotic | marked down-regulation of MUC1 expression |  |
| MUC1/AQA: control peptide in which the CQC motif was altered to AQA, with poly-dArg transduction domain; SEQ ID NO: 60 ([dR][dR][dR][dR][dR][dR][dR][dR][dR]AQARRKNYGQLDIFP) [reference compound] | not | no effect |  |  |  |  |  |  |  |  | no anti-tumor activity |
